Results on 9 compounds are retold here after patent US20260317324A1, “BIFUNCTIONAL COMPOUNDS FOR DEGRADING BRAF VIA UBIQUITIN PROTEOSOME PATHWAY” (Nurix Therapeutics, Inc., priority 2023, published 2026).

What all share (type): cell-based
One assay deals with T1, BRAF V600E (Homo sapiens, UniProt P15056, V600E).
T1 construct: endogenous C-terminal HiBiT fusion tag on BRAF V600E allele; endogenous in cells; host or cells: A375 clone 1F10 (CRISPR-Cas9 knock-in of the HiBiT tag; parental A375 from ATCC)
T1 sequence (P15056 whole entry V600E, the tested form may be a part): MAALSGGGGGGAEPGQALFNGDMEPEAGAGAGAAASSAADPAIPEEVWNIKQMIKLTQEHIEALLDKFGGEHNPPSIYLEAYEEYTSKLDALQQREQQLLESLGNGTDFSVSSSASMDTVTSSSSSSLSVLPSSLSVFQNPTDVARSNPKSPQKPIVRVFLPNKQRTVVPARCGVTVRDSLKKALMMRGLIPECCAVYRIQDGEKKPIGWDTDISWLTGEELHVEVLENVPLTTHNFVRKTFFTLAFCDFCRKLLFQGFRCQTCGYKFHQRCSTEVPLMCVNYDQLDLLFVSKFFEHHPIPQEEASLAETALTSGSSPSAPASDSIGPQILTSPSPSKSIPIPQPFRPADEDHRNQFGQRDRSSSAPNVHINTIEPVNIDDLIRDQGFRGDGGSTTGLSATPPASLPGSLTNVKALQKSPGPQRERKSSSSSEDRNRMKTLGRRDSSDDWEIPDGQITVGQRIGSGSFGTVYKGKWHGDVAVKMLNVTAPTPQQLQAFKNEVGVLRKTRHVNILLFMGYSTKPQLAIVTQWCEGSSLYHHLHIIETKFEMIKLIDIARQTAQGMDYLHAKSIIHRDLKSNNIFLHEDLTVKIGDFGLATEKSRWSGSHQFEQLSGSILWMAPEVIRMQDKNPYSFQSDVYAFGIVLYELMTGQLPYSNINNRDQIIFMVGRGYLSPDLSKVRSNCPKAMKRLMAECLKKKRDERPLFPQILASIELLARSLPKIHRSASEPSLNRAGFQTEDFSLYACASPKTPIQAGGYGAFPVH
Kind of assay: BRAF HiBiT degradation assay, C-terminal HiBiT-tagged BRAF V600E A375 cells (clone 1F10), Nano-Glo HiBiT Lytic assay. To be noted: for Dmax: A-375. In outline:
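A375 cells (clone 1F10, endogenous C-terminal HiBiT on BRAF V600E) were seeded at 10,000 cells/well, grown 24 h, then dosed in duplicate with an 11-point series from 1 μM to 0.01 nM (0.2% DMSO). Nano-Glo HiBiT lytic luminescence was normalised to DMSO and wildtype-A375 background; DC50 was read at 50% protein remaining, alongside observed Dmax.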
For orientation: The HiBiT peptide binds its large partner to form an active luciferase.

Another assay has as its target T2, BRAF G466V (Homo sapiens, UniProt P15056, G466V).
T2 construct: Horizon Discovery (HCT-116 BRAF−/− cells); host or cells: HCT-116 BRAF−/− cells, clone 8, lentiviral transduction
Kind of assay: BRAF HiBiT degradation assay, C-terminal HiBiT-tagged BRAF G466V overexpressed in HCT-116 BRAF−/− cells (clone 8), Nano-Glo HiBiT Lytic assay. An outline of the steps:
(§1)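 HCT-116 BRAF−/− clones stably overexpressing C-terminal HiBiT-tagged mutant BRAF were seeded 24 h before treatment with an 11-point half-log series from 1 μM to 0.01 nM (0.2% DMSO final). Remaining protein was read by HiBiT lytic luminescence, with DMSO and wildtype-cell controls. DC50 was taken as the fitted concentration at 50% remaining protein; observed Dmax is reported relative to DMSO.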

A further assay deals with T3, BRAF G469A (Homo sapiens, UniProt P15056, G469A).
T3 construct: Horizon Discovery (HCT-116 BRAF−/− cells); host or cells: HCT-116 BRAF−/− cells, clone 34, lentiviral transduction
T3 sequence (P15056 whole entry G469A): as the sequence (P15056 whole entry V600E, the tested form may be a part) above, with G469A, E600V counted along it
Kind of assay: BRAF HiBiT degradation assay, C-terminal HiBiT-tagged BRAF G469A overexpressed in HCT-116 BRAF−/− cells (clone 34), Nano-Glo HiBiT Lytic assay. An outline of the steps: as §1

Another assay concerns the target T4, BRAF D594G (Homo sapiens, UniProt P15056, D594G).
T4 construct: Horizon Discovery (HCT-116 BRAF−/− cells); host or cells: HCT-116 BRAF−/− cells, clone 63, lentiviral transduction
Kind of assay: BRAF HiBiT degradation assay, C-terminal HiBiT-tagged BRAF D594G overexpressed in HCT-116 BRAF−/− cells (clone 63), Nano-Glo HiBiT Lytic assay. An outline of the steps:
as §1

Setting [1] is: A375 (BRAF V600E, Class 1), DC50 at 50% degradation.
[2] abbreviates: A375 (BRAF V600E, Class 1), observed Dmax, % protein degraded relative to DMSO control.
Setting [3] is: BRAF G466V (Class 3), HCT-116 BRAF−/− cells, DC50 at 50% degradation.
Setting [4] is: BRAF G466V (Class 3), HCT-116 BRAF−/− cells, observed Dmax relative to DMSO control.
Where [5] appears, read: BRAF G469A (Class 2), HCT-116 BRAF−/− cells, DC50 at 50% degradation.
Setting [6] is: BRAF G469A (Class 2), HCT-116 BRAF−/− cells, observed Dmax relative to DMSO control.
Where [7] appears, read: BRAF D594G (Class 3), HCT-116 BRAF−/− cells, DC50 at 50% degradation.
Setting [8] is: BRAF D594G (Class 3), HCT-116 BRAF−/− cells, observed Dmax relative to DMSO control.
Where [9] appears, read: A375 (BRAF V600E), DC50 at 50%: fitted conc. at Y=50.
The mark [10] stands for this setting: A375 (BRAF V600E), percentage protein degraded at maximal compound effect relative to DMSO.
The mark [11] stands for this setting: BRAF G466V, DC50 at 50%: fitted conc. at Y=50.
The mark [12] stands for this setting: HCT-116, BRAF G466V, percentage protein degraded at maximal compound effect relative to DMSO.
[13] abbreviates: Class 2, BRAF G469A, DC50 at 50%: fitted conc. at Y=50.
Setting [14] is: HCT-116, Class 2, BRAF G469A, percentage protein degraded at maximal compound effect relative to DMSO.
Where [15] appears, read: BRAF D594G, DC50 at 50%: fitted conc. at Y=50.
Where [16] appears, read: HCT-116, BRAF D594G, percentage protein degraded at maximal compound effect relative to DMSO.

By DC50 is commonly meant the concentration giving 50% degradation. By Dmax is commonly meant the greatest extent of degradation seen. The low end stands for shallow degradation, the high end for deep degradation.

Structures are written as SMILES.

T4 sequence (P15056 whole entry D594G): as the sequence (P15056 whole entry V600E, the tested form may be a part) above, with D594G, E600V counted along it
T2 sequence (P15056 whole entry G466V): as the sequence (P15056 whole entry V600E, the tested form may be a part) above, with G466V, E600V counted along it

On to `O=C1CC[C@H](c2ccc(N3CCC(CN4CCN(c5ccc(-n6cc(-c7cc(Cl)cc(NS(=O)(=O)N8CC[C@@H](F)C8)c7F)c(-c7ccncc7)n6)nc5)CC4)CC3)nc2)C(=O)N1` [Compound 297, (3R)—N-{5-chloro-3-[1-(5-{4-[(1-{5-[(3R)-2,6-dioxopiperidin-3-yl]pyridin-2-yl}piperidin-4-yl)methyl]piperazin-1-yl}pyridin-2-yl)-3-(pyridin-4-yl)-1H-pyrazol-4-yl]-2-fluorophenyl}-3-fluoropyrrolidine-1-sulfonamide], for which the DC50 on BRAF V600E (setting [1]), on BRAF G466V (setting [3]), at BRAF G469A (setting [5]) and on BRAF D594G (setting [7]) was less than 10 nM throughout. The Dmax on BRAF V600E (setting [2]), at BRAF G466V (setting [4]), on BRAF G469A (setting [6]) and at BRAF D594G (setting [8]) was greater than 70% each time.
Turning to `O=C1CCC(c2c(F)cc(N3CCC(CN4CCN(c5ccc(-n6cc(-c7cc(Cl)cc(NS(=O)(=O)N8CCCC8)c7F)c(-c7ccncc7)n6)cc5)CC4)CC3)cc2F)C(=O)N1` (racemic) [Compound 387, Rac-N-{5-chloro-3-[1-(4-{4-[(1-{4-[(3R)-2,6-dioxopiperidin-3-yl]-3,5-difluorophenyl}piperidin-4-yl)methyl]piperazin-1-yl}phenyl)-3-(pyridin-4-yl)-1H-pyrazol-4-yl]-2-fluorophenyl}pyrrolidine-1-sulfonamide], the DC50 on BRAF V600E (setting [1]) was 10 to 50 nM; on BRAF G466V (setting [3]), less than 10 nM; at BRAF G469A (setting [5]) it was 10 to 50 nM; at BRAF D594G (setting [7]), less than 10 nM. The greatest degradation seen (Dmax) on BRAF V600E (setting [2]) is greater than 70%; on BRAF G466V (setting [4]), greater than 70%; at BRAF G469A (setting [6]), 30 to 70%; on BRAF D594G (setting [8]), 30 to 70%.
As to `O=C1CCC(c2ccc(N3CCC(CN4CCN(c5ccc(-n6cc(-c7cc(C(F)F)cc(NS(=O)(=O)N8CCCC8)c7F)c(-c7ccncc7)n6)c(F)c5)CC4)CC3)nc2)C(=O)N1` (racemic) [Compound 357, Rac-N-[5-(difluoromethyl)-3-[1-(4-{4-[(1-{5-[(3R)-2,6-dioxopiperidin-3-yl]pyridin-2-yl}piperidin-4-yl)methyl]piperazin-1-yl}-2-fluorophenyl)-3-(pyridin-4-yl)-1H-pyrazol-4-yl]-2-fluorophenyl]pyrrolidine-1-sulfonamide], the DC50 is less than 10 nM at BRAF V600E (setting [1]), less than 10 nM at BRAF G466V (setting [3]), 10 to 50 nM at BRAF G469A (setting [5]) and less than 10 nM on BRAF D594G (setting [7]). The Dmax was greater than 70% on BRAF V600E (setting [2]), greater than 70% on BRAF G466V (setting [4]), greater than 70% on BRAF G469A (setting [6]) and 30 to 70% on BRAF D594G (setting [8]).
As to `CCCS(=O)(=O)Nc1cccc(-c2cn(-c3ccc(N4CCN(CC5CCN(c6ccc([C@@H]7CCC(=O)NC7=O)cc6)CC5)CC4)nc3)nc2-c2ccncc2)c1F` [Compound 4, N-{3-[1-(6-{4-[(1-{4-[(3S)-2,6-dioxopiperidin-3-yl]phenyl}piperidin-4-yl)methyl]piperazin-1-yl}pyridin-3-yl)-3-(pyridin-4-yl)-1H-pyrazol-4-yl]-2-fluorophenyl}propane-1-sulfonamide], the DC50 was 10 to 50 nM at BRAF V600E (setting [9]), 10 to 50 nM on BRAF G466V (setting [11]), greater than 500 nM at BRAF G469A (setting [13]) and greater than 500 nM at BRAF D594G (setting [15]). Further, the greatest degradation seen (Dmax) was greater than 70% at BRAF V600E (setting [10]), 30 to 70% on BRAF G466V (setting [12]), less than 30% at BRAF G469A (setting [14]) and 30 to 70% at BRAF D594G (setting [16]).
As for `CCCS(=O)(=O)Nc1cccc(-c2nc(C3CCC4(CC3)CN(C(=O)CCCCCc3ccc5c(c3)C(=O)N(C3CCC(=O)NC3=O)C5)C4)sc2-c2ccnc(N)n2)c1F` (racemic) [Compound 234, Rac-N-{3-[5-(2-aminopyrimidin-4-yl)-2-[2-(6-{2-[(3R)-2,6-dioxopiperidin-3-yl]-3-oxo-2,3-dihydro-1H-isoindol-5-yl}hexanoyl)-2-azaspiro[3.5]nonan-7-yl]-1,3-thiazol-4-yl]-2-fluorophenyl}propane-1-sulfonamide], the 50% degradation concentration (DC50) was less than 10 nM at BRAF V600E (setting [9]), 10 to 50 nM on BRAF G466V (setting [11]), greater than 500 nM at BRAF G469A (setting [13]) and less than 10 nM at BRAF D594G (setting [15]). Further, the Dmax is greater than 70% at BRAF V600E (setting [10]), 30 to 70% on BRAF G466V (setting [12]), less than 30% on BRAF G469A (setting [14]) and 30 to 70% at BRAF D594G (setting [16]).
`CCCS(=O)(=O)Nc1cccc(-c2nc(C3CCC4(CC3)CCN(CC[C@H]3CCN(c5ccc(C6CCC(=O)NC6=O)cn5)C3)CC4)sc2-c2ccnc(N)n2)c1F` (mixture of isomers) [Compound 259, N-{3-[5-(2-aminopyrimidin-4-yl)-2-(3-{2-[(3S)-1-{5-[(3RS)-2,6-dioxopiperidin-3-yl]pyridin-2-yl}pyrrolidin-3-yl]ethyl}-3-azaspiro[5.5]undecan-9-yl)-1,3-thiazol-4-yl]-2-fluorophenyl}propane-1-sulfonamide]: the DC50 on BRAF V600E (setting [1]) is 10 to 50 nM; at BRAF G466V (setting [3]) it was greater than 500 nM; on BRAF G469A (setting [5]), greater than 500 nM; at BRAF D594G (setting [7]) it was greater than 500 nM. In addition, the Dmax on BRAF V600E (setting [2]) is 30 to 70%; at BRAF G466V (setting [4]), less than 30%; on BRAF G469A (setting [6]), less than 30%; at BRAF D594G (setting [8]) it was less than 30%.
Take `CCN(C)S(=O)(=O)Nc1cccc(-c2nc(C(C)(C)C)sc2-c2ccnc(Nc3ccc(N4CCN(C(=O)C5CCN(c6ccc(C7CCC(=O)NC7=O)cn6)CC5)CC4)cn3)n2)c1F` (racemic) [Compound 56, Rac-(3R)-3-[6-(4-{4-[6-({4-[2-tert-butyl-4-(3-{[ethyl(methyl)sulfamoyl]amino}-2-fluorophenyl)-1,3-thiazol-5-yl]pyrimidin-2-yl}amino)pyridin-3-yl]piperazine-1-carbonyl}piperidin-1-yl)pyridin-3-yl]piperidine-2,6-dione]: the DC50 is less than 10 nM at BRAF V600E (setting [9]), less than 10 nM at BRAF G466V (setting [11]), 10 to 50 nM at BRAF G469A (setting [13]) and less than 10 nM on BRAF D594G (setting [15]). The Dmax at BRAF V600E (setting [10]) was greater than 70%; at BRAF G466V (setting [12]), 30 to 70%; at BRAF G469A (setting [14]), 30 to 70%; at BRAF D594G (setting [16]), 30 to 70%.
In the case of `CCN(C)S(=O)(=O)Nc1cc(Cl)cc(-c2cn(-c3ccc(N4CCN(CC5CCN(c6ccc([C@H]7CCC(=O)NC7=O)cn6)CC5)CC4)cn3)nc2-c2ccncc2)c1F` [Compound 314, (3R)-3-(6-{4-[(4-{6-[4-(5-chloro-3-{[ethyl(methyl)sulfamoyl]amino}-2-fluorophenyl)-3-(pyridin-4-yl)-1H-pyrazol-1-yl]pyridin-3-yl}piperazin-1-yl)methyl]piperidin-1-yl}pyridin-3-yl)piperidine-2,6-dione], the DC50 is less than 10 nM at BRAF V600E (setting [1]), 10 to 50 nM on BRAF G466V (setting [3]), 10 to 50 nM at BRAF G469A (setting [5]) and less than 10 nM on BRAF D594G (setting [7]). The maximal degradation (Dmax) on BRAF V600E (setting [2]) is greater than 70%; at BRAF G466V (setting [4]), greater than 70%; at BRAF G469A (setting [6]), 30 to 70%; on BRAF D594G (setting [8]) it was greater than 70%.
For `CCCS(=O)(=O)Nc1cccc(-c2nc(C(C)(C)C)sc2-c2ccnc(Nc3ccc(N4CCN(C(=O)C5CCN(c6ccc(C7CCC(=O)NC7=O)cn6)CC5)CC4)c(F)c3)n2)c1F` (racemic) [Compound 57, Rac-N-(3-{2-tert-butyl-5-[2-({4-[4-(1-{5-[(3R)-2,6-dioxopiperidin-3-yl]pyridin-2-yl}piperidine-4-carbonyl)piperazin-1-yl]-3-fluorophenyl}amino)pyrimidin-4-yl]-1,3-thiazol-4-yl}-2-fluorophenyl)propane-1-sulfonamide], the DC50 at BRAF V600E (setting [9]) was less than 10 nM; at BRAF G466V (setting [11]), greater than 500 nM; at BRAF G469A (setting [13]) it was greater than 500 nM; at BRAF D594G (setting [15]) it was greater than 500 nM. Also, the Dmax at BRAF V600E (setting [10]) was greater than 70%; on BRAF G466V (setting [12]), 30 to 70%; on BRAF G469A (setting [14]) it was 30 to 70%; at BRAF D594G (setting [16]), 30 to 70%.
